Assay results published in PMC7897990, “TriTOX: A novel Trichomonas vaginalis assay platform for high-throughput screening of compound libraries” (International Journal for Parasitology: Drugs and Drug …, 2021).
“Also recorded” adds a separate entry of the source. Read-outs that look alike come from different tables or passages of the source.

Tests used:
[1] = tested on: T. vaginalis; assay: Medium-throughput (MTS) confirmatory dose-response growth assay, T. vaginalis; type: cell-based, Trichomonas vaginalis; details: 48 h; for activity against T. vaginalis in MTS, in words: 10-point dilution series, 96-well; for IC50: 96-well, 10,000 cells/mL in 50 μL, mean ± SEM, >10 = no appreciable activity at highest dose
Protocol: (§1) For microtiter plate assays, trichomonads were grown in anaerobic conditions within GasPak EZ anaerobe pouches with fresh anaerobic sachets. Working reagent of the chromogen was phenol red (Sigma) in a 1% w/v working solution in phosphate buffered saline (PBS), which was filter sterilised. Chromogen absorbance was monitored at 570 nm on an absorbance microplate reader after plates were allowed to equilibrate in atmospheric conditions at room temperature for at least 5 min.
(§2) After absorbances were measured, data were processed as followed unless indicated otherwise in the text. […] Prism 8 (GraphPad) was used to plot dose-response curves and calculate IC50 values, using a least squares regression, log[inhibitor] vs normalised response (variable slope, four parameters) model. Where replicate plates were used, data for dose-response curves were plotted as the mean±SD of these replicates.
(§3) A selection of 17 compounds assayed in the high-throughput screen (HTS) for T. vaginalis which were available through BioAustralis were obtained for validation of inhibitory in/activity in our optimised medium-throughput format. For this, a 10-point serial dilution was used for drug-susceptibility testing to calculate IC50 values of ‘hit’ compounds. Mtz was used as a positive control. Each screen was performed with 3 technical replicates and a minimum of 2 biological replicates in both T. vaginalis and T. foetus using assay conditions of seeds of 10,000 cells/mL in 50 μL, with absorbance measured at 48 h. Dose response curves and IC50 were calculated for each compound as described above in Section 2.3.

[2] = tested on: Trichomonas vaginalis G3 trophozoites; details: for T. vaginalis HTS results / T. vaginalis HTS result in words: 384-well, 25 μL, 10,000 cells/mL, 48 h, biological duplicates; for T. vaginalis HTS results: 10% chromogen, single concentration; for T. vaginalis HTS result in words: hit = >50% inhibition; for T.vaginalis_Absorbance_Rep1: replicate 1, raw absorbance; for T.vaginalis_Absorbance_Rep2: replicate 2, raw absorbance
[3] = tested on: T. foetus; assay: Medium-throughput (MTS) confirmatory dose-response growth assay, T. foetus; type: cell-based, Tritrichomonas foetus; details: 48 h; for activity against T. foetus in MTS, in words: 10-point dilution series, 96-well; for IC50: 96-well, 10,000 cells/mL in 50 μL, mean ± SEM, >10 = no appreciable activity at highest dose
Protocol: as §1, §2, §3

[4] = tested on: nontumorigenic neonatal foreskin fibroblast (NFF) cell line; details: NFF_NS1 screen at 5 µg/mL
[5] = tested on: Trichomonas vaginalis G3 trophozoites; assay: microbe, parasite or virus in culture; details: 48 h
[6] = HTS, parasite screen at 1 µg/mL
[7] = read-out: T.vaginalis_%inb_Rep1
[8] = read-out: T.vaginalis_%inb_Rep2

| Compound | activity against T. vaginalis in MTS, in words [1] | IC50 ([1]; Trichomonas vaginalis) | T. vaginalis HTS results [2] | T. vaginalis HTS result in words [2] | activity against T. foetus in MTS, in words [3] | IC50 ([3]; Tritrichomonas foetus) | NFF_Activity [4] | IC50 [1] | T.vaginalis_%inb_Rep1 ([2]; HTS, parasite screen at 1 µg/mL, replicate 1) | T.vaginalis_Absorbance_Rep1 [2, 6] | T.vaginalis_%inb_Rep2 ([2]; HTS, parasite screen at 1 µg/mL, replicate 2) | T.vaginalis_Absorbance_Rep2 [2, 6] | IC50 [3] | inhibition of growth at 1 µg/mL [5, 7] | inhibition of growth at 1 µg/mL [5, 8] |
| --- | --- | --- | --- | --- | --- | --- | --- | --- | --- | --- | --- | --- | --- | --- | --- |
| CCC(=O)CCCCC[C@@H]1NC(=O)[C@H]2CCCCN2C(=O)[C@H]([C@@H](C)CC)NC(=O)[C@H](Cc2cn(OC)c3ccccc23)NC1=O [Apicidin, apicidin] | confirmed active; also recorded: micromolar IC50 values | 1.2 ± 0.1 µM | I | inactive in both T. vaginalis HTS replicates | micromolar IC50 values | 1.9 ± 0.2 µM | – | – | – | – | – | – | – | – | – |
| O=[N+]([O-])c1ncc[nH]1 [Azomycin, azomycin] | confirmed active; also recorded: inconsistent activity | 9.7 ± 5.5 µM | I | inactive | – | 8.6 ± 4.3 µM | – | – | – | – | – | – | – | – | – |
| COc1ccc2cc1Oc1cc(ccc1O)[C@H](O)[C@]13SS[C@@]4(C(=O)N1C)[C@H](O)C1=COC=C[C@H](OC2=O)[C@H]1N4C3=O [Emestrin, emestrin, reference compound] | inactive | – | – | partial hits | inconsistent between biological replicates | – | A (active (A) compounds having >25% inhibitory activity) | > 10 µM | 12.22% | 0.943 | 63.12% | 1.619 | 7.3 ± 3.3 µM | – | – |
| CO[C@H]1C[C@@H]2CC[C@@H](C)[C@@](O)(O2)C(=O)C(=O)N2CCCC[C@H]2C(=O)O[C@H]([C@H](C)C[C@@H]2CC[C@@H](OCCO)[C@H](OC)C2)CC(=O)[C@H](C)/C=C(\C)[C@@H](O)[C@@H](OC)C(=O)[C@H](C)C[C@H](C)/C=C/C=C/C=C/1C [Everolimus] | – | – | – | – | – | – | I (otherwise these were reported as inactive (I)) | – | – | 0.983 | – | 0.76 | – | 14.8% | 10.1% |
| CCCCC[C@@H](O)[C@H]1C(=O)O[C@H](C)[C@@H](O)/C=C/C=C/C=C/C=C/C=C(\C)[C@@H](O)C[C@H](O)C[C@H](O)C[C@H](O)C[C@H](O)C[C@H](O)C[C@@H]1O [Filipin III] | – | – | – | – | – | – | I (otherwise these were reported as inactive (I)) | – | – | 1.003 | – | 0.794 | – | 15.8% | 12.6% |
| C[C@@](O)(/C=C/[C@H]1CC=CC(=O)O1)[C@@H](C[C@@H](O)\C=C/C=C\C=C\CO)OP(=O)(O)O [Fostriecin] | – | – | – | – | – | – | I (otherwise these were reported as inactive (I)) | – | – | 0.964 | – | 0.811 | – | 13.7% | 13.8% |
| Cc1cc(O)c(C=O)c2c1C(=O)Oc1c(COC(=O)/C=C/C(=O)O)c(O)c(C(=O)O)c(C)c1O2 [Fumarprotocetraric acid] | – | – | – | – | – | – | I (otherwise these were reported as inactive (I)) | – | – | 0.953 | – | 0.839 | – | 13.1% | 15.8% |
| C[C@H]1C(=O)N2c3ccccc3[C@@]3(O)C[C@@H]4C(=O)N[C@](C)(c5nc6ccccc6c(=O)n54)N1[C@@H]23 [Fumiquinazoline D] | – | – | – | – | – | – | I (otherwise these were reported as inactive (I)) | – | – | 0.964 | – | 0.84 | – | 13.7% | 15.9% |
| CCCCc1ccc(C(=O)O)nc1 [Fusaric acid] | – | – | – | – | – | – | I (otherwise these were reported as inactive (I)) | – | – | 0.976 | – | 0.881 | – | 13.9% | 15.8% |
| O=c1c(-c2ccc(O)cc2)coc2cc(O)cc(O)c12 [Genistein] | – | – | – | – | – | – | I (otherwise these were reported as inactive (I)) | – | – | 1.004 | – | 0.828 | – | 15.3% | 12.4% |
